Measurements as given in patent US20150150897A1, “METHODS OF TREATING HEPATITIS C VIRUS INFECTION IN SUBJECTS WITH CIRRHOSIS” (priority 2013, published 2015).

What was measured:
[1] = healthy volunteers, cited from earlier work
[2] = Clinical trials of Compound 1: resistance and tolerability; format: in vivo, human
Text: Compound 1, is also known as “sofosbuvir” or “SOF”.

| SMILES | exposure on concurrent administration of Compound 1 [1] | tolerability [2] | increases in Compound 1 exposure from co-administration ([1]; co-administration with GS-5885, GS-9669, and GS-5885+GS-9669) |
| --- | --- | --- | --- |
| COC(=O)N[C@H](C(=O)N1CC2(CC2)C[C@H]1c1ncc(-c2ccc3c(c2)C(F)(F)c2cc(-c4ccc5nc([C@@H]6[C@H]7CC[C@H](C7)N6C(=O)[C@@H](NC(=O)OC)C(C)C)[nH]c5c4)ccc2-3)[nH]1)C(C)C [GS-5885] | unaffected | – | – |
| CC(C)OC(=O)[C@H](C)N[P@](=O)(OC[C@H]1O[C@@H](n2ccc(=O)[nH]c2=O)[C@](C)(F)[C@@H]1O)Oc1ccccc1 [Compound 1, (S)-isopropyl2-(((S)-(((2R,3R,4R,5R)-5-(2,4-dioxo-3,4-dihydrophyrimidin-1(2H)-yl)-4-fluoro-3-hydroxy-4-methyltetrahydrofuran-2-yl)methoxy)(phenoxy)phosphoryl)amino)propanoate] | – | well-tolerated | not clinically significant |
| COC[C@H]1C[C@@H](c2ncc(-c3ccc4c(c3)COc3cc5c(ccc6nc([C@@H]7CC[C@H](C)N7C(=O)[C@@H](NC(=O)OC)C(C)C)[nH]c65)cc3-4)[nH]2)N(C(=O)[C@H](NC(=O)OC)c2ccccc2)C1 [GS-9669] | unaffected | – | – |
